For data set [1], the target named is muscarinic receptors (submandibular gland) (Rattus norvegicus, UniProt P08483). The experiment in a line: biochemical. It counts as binding, rat (male Sprague-Dawley). Particulars: in vitro, 0.3 nmolar 3H-NMS, 45 min, 30° C., read-out: log IC50, Submandibular gland (converted).
The target in data set [2] is T1, muscarinic receptors (heart) (Rattus norvegicus, UniProt P10980).
T1 construct: The whole heart was cut up with scissors; from tissue; host or cells: whole heart of male Sprague-Dawley rats, homogenate
T1 sequence (P10980 1-466): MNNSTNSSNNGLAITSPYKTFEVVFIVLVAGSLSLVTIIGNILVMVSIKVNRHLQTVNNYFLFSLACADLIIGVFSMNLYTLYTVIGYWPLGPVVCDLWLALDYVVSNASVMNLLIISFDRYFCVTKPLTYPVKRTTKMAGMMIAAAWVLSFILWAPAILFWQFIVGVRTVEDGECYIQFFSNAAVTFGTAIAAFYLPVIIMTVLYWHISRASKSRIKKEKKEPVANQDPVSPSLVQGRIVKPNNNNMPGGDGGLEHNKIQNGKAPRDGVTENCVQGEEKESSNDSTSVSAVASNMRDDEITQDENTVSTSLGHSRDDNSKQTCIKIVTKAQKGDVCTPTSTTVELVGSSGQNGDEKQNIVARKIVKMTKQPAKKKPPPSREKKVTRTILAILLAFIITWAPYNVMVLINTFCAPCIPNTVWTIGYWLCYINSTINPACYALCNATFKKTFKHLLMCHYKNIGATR
Put plainly: Receptor binding test in vitro, 3H-NMS displacement, whole heart. Also noted: species or system rat (male Sprague-Dawley).
Procedure: The organs were donated by male Sprague-Dawley rats weighing 180-220 g. After the heart and submandibular gland had been removed, all other steps were carried out in ice cold Hepes HCl buffer (pH 7.4; 100 mmolar NaCl, 10 mmolar MgCl2). The whole heart was cut up with scissors. All the organs were then homogenised in a Potter apparatus.
For the binding test the homogenised organs were diluted as follows:
The homogenised organs were incubated at a certain concentration of the radioligand and at a series of concentrations of the non-radioactive test substances in an Eppendorf centrifuge tube at 30° C. Incubation lasted 45 minutes. […] Incubation was ended by the addition of ice cold buffer followed by vacuum filtration. The filters were rinsed with cold buffer and their radioactivity was determined. […] Each measurement was taken four times. The IC50 values of the non-labelled test substances were determined graphically.

In the next data set the target is T2, M1 (Rattus norvegicus, UniProt P08482).
T2 construct: from tissue; host or cells: living male THOM rat (site of action, sympathetic ganglia, is own knowledge)
T2 sequence (P08482 1-460): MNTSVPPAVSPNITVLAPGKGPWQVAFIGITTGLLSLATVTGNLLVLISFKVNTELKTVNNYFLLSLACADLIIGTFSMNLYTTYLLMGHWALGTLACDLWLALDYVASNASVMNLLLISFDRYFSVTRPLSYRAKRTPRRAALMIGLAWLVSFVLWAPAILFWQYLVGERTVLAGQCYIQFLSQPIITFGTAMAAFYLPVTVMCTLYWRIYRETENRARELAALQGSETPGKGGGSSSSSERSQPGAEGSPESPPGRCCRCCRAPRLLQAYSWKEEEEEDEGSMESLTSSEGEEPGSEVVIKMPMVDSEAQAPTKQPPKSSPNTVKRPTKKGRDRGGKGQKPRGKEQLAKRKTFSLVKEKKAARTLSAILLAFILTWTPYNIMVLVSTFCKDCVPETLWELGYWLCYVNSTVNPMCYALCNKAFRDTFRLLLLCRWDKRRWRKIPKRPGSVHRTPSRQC
The experiment in a line: M1 activity in the rat: inhibition of rise in blood pressure caused by McN-A-343. It counts as in vivo, rat (male THOM). Particulars: iv, 5 min, i.v., 50% reduction of McN-A-343 rise in blood pressure, read-out: M1 activity (rat) ED50. As to the method:
The dosage of the substances which reduced either the vagal bradycardia (M2) or the rise in blood pressure (M1) by 50% was determined graphically. For the results see Table II.

A further data set concerns the target T3, M2 (Rattus norvegicus, UniProt P10980).
T3 construct: The bradycardia caused by vagus stimulation; from tissue; host or cells: heart of the living male THOM rat
T3 sequence (P10980 1-466): T1 sequence (P10980 1-466)
The experiment in a line: M2 activity in the rat: inhibition of bradycardia caused by vagus stimulation. Particulars: iv, 5 min, 50% reduction of vagal bradycardia. The data set is classed as in vivo, rat (male THOM). As to the method:
The method used was described by Hammer and Giachetti (Life Sciences 31, 2991-2998 (1982)). 5 minutes after the intravenous injection of increasing doses of the substance, either the right vagus was electrically stimulated (frequency: 25 Hz; pulse width: 2 ms; duration of stimulus: 30 s; voltage: supramaximal) or 0.3 mg/kg of McN-A-343 were intravenously injected into male THOM rats. The bradycardia caused by vagus stimulation and the rise in blood pressure caused by McN-A-343 were determined. The dosage of the substances which reduced either the vagal bradycardia (M2) or the rise in blood pressure (M1) by 50% was determined graphically. For the results see Table II.

The target in data set [3] is muscarinic receptors (lachrymal glands) (Rattus norvegicus, UniProt P08483). Put plainly: in vivo. As to the method:
(§1) For these experiments, female rats with a body weight of about 200 g were used. Before the start of the experiment the animals were anaesthetised with a dose of 1.25 g/kg of urethane. The animals were given the dosage of test substance by i.v. injection. After 15 minutes, 113 ng/kg of ^3 H-N-methylscopolamine (^3 H-NMS) were given by the same route. After another 15 minutes the animals were killed and their heart, bronchi and lachrymal glands were taken out. These organs were dissolved in Soluene R and the radioactivity was measured. These measurements were taken as representing total binding. […] The ID50 values for the individual organs were determined from these experiments. […]

Data set [4] deals with T4, muscarinic receptors (heart, ventricle) (Rattus norvegicus, UniProt P10980).
T4 construct: from tissue; host or cells: heart (atrium, ventricle) of female rats, labelled in vivo
T4 sequence (P10980 1-466): T1 sequence (P10980 1-466)
The experiment in a line: Receptor binding test in vivo (3H-NMS), ventricle. Set-up: species or system rat (female). As to conditions: iv, 0.5 h, i.v., in vivo 3H-NMS binding, read-out: ID50, Heart, Ventricle. As to the method: as §1

Data set [5] deals with T5, muscarinic receptors (ileum) (Cavia porcellus, UniProt H0W1Z3).
T5 construct: from tissue; host or cells: isolated ileum of the guinea pig
Put plainly: Dissociation constants (KB values) on the isolated ileum. Particulars: guinea pig, methacholine, 30 minutes contact. As to the method: (§2) Dissociation constants (KB values) were determined "in vitro" on the ileum and spontaneously beating atrium of the guinea pig. The ileum was taken out and incubated in Krebs-Henseleit solution in an organ bath. Contractions were induced by increasing concentrations of methacholine (M) so that total concentration/activity curves could be recorded. M was then washed out, the test substance was added and kept in contact for 30 minutes and another concentration/activity curve was recorded with M.

In data set [6] the target is T6, muscarinic receptors of the atrium (Cavia porcellus, UniProt H0VRN8).
T6 construct: isolated, spontaneously beating, right atrium; from tissue; host or cells: isolated spontaneously beating right atrium of the guinea pig
T6 sequence (H0VRN8 1-466): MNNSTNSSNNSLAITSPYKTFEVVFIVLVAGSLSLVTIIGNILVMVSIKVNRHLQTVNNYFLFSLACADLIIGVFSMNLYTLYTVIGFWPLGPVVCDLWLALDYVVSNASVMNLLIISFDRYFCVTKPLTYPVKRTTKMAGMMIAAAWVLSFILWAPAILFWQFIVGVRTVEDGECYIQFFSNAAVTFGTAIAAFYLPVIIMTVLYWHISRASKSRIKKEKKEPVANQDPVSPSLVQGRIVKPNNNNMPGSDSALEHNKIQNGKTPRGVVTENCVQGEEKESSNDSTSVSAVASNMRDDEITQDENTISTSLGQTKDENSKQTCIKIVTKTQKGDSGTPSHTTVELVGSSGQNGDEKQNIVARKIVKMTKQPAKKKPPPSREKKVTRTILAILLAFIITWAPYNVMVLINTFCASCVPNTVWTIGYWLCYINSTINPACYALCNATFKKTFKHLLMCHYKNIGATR
Put plainly: Dissociation constants (KB values) on the isolated spontaneously beating right atrium. Set-up: species or system guinea pig. Particulars: spontaneously beating atrium, guinea pig, methacholine, 30 minutes contact; read-out: KB, Heart. The method, then:
as §2
(§3) Dissociation constants for the muscarinic receptors of the atrium were obtained in the manner described above.

For data set [7], the system named is muscarinic receptors of the atrium. Described as above. Set-up: species or system guinea pig. As to conditions: guinea pig heart and ileum in vitro. The method, then: as §2, §3
The target in data set [8] is T7, muscarinic receptors (heart, atrium) (Rattus norvegicus, UniProt P10980).
T7 construct: from tissue; host or cells: heart (atrium, ventricle) of female rats, labelled in vivo
T7 sequence (P10980 1-466): T1 sequence (P10980 1-466)
Put plainly: Receptor binding test in vivo (3H-NMS), atrium. Set-up: species or system rat (female). As to conditions: in vivo binding. As to the method:
as §1

The test system of data set [9] is muscarinic receptors (bronchi). Put plainly: Receptor binding test in vivo (3H-NMS), bronchi. Set-up: species or system rat (female). Particulars: i.v., in vivo 3H-NMS binding, rat; 30 min. As to the method: as §1
The nature of the next data set: Solubility in water. The data set is classed as physicochemical.

This note sets out measurements from US4931436A, “Condensed diazepinones, processes for preparing them and pharmaceutical compositions containing these compounds” (Dr. Karl Thomae GmbH, priority 1988, dated 1990).

In general, IC50 refers to the concentration that gives 50% inhibition.

Structures can show the parent of a compound that is named as a salt. Where only a bound is given, the exact number is not on record here.

Sequence of muscarinic receptors (submandibular gland) (P08483 whole entry): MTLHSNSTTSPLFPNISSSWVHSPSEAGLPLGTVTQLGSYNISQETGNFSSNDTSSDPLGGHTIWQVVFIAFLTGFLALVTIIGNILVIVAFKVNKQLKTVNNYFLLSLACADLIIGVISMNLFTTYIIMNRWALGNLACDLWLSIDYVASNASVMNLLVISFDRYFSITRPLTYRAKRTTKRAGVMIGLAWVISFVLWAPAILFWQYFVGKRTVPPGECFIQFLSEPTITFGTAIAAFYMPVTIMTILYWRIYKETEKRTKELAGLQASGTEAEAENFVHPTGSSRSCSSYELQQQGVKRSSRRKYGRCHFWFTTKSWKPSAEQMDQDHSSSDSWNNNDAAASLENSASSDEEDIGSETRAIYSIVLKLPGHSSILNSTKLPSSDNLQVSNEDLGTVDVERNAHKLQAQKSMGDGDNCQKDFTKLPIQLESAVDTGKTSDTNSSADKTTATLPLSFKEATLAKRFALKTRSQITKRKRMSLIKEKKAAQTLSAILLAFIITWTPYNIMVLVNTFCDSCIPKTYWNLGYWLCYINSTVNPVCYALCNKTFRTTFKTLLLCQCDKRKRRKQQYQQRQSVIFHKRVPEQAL
Sequence of muscarinic receptors (lachrymal glands) (P08483 whole entry): as above
T5 sequence (H0W1Z3 1-590): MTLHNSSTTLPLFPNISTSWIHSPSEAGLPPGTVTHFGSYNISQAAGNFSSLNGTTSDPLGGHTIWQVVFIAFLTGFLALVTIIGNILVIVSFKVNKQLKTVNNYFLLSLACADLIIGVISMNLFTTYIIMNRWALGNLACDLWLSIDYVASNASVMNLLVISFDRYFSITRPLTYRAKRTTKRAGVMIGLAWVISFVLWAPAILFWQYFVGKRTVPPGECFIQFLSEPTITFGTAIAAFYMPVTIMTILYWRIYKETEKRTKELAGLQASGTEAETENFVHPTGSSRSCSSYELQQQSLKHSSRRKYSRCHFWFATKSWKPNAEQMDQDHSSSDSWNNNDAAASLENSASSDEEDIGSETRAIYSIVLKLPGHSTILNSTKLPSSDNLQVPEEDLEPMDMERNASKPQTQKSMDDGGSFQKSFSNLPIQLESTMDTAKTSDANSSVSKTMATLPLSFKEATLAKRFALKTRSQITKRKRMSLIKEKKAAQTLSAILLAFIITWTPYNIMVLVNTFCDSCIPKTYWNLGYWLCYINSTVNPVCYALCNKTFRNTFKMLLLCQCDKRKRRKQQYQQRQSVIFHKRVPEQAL

Consider `CS(=O)(=O)O.O=C1Nc2cccnc2N(C(=O)N2CCCC(CCN3CCCCC3)C2)c2ccccc21` (stereo not shown) [Substance C, 5,11-dihydro-11-[[3-[2-(1-piperidinyl)ethyl]-1-piperidinyl]carbonyl]-6H-pyrido[2,3-b][1,4]benzodiazepin-6-one-methanesulphonate], for which the IC50 in data set [1] is 30.2 nM. In addition, in data set [2], the “Selectivity factor: ratio IC50 submandibular gland to IC50 heart” value turned out to be 10. Also, the values for the ED50 on M1 and at M2 were 39 µg/kg and 7.6 µg/kg, respectively.

In the case of `CN(CCC1CCCN(C(=O)N2c3ccccc3C(=O)Nc3cccnc32)C1)C1CCCC1` (stereo not shown) [Substance E], the IC50 in data set [1] is 30.2 nM. Besides, the “Selectivity factor: ratio IC50 submandibular gland to IC50 heart” value in data set [2] came to 10.

On to `Cl.O=C1Nc2cccnc2N(C(=O)N2CCCC(CCN3CCCCCC3)C2)c2ccccc21` (stereo not shown) [Substance F, 5,11-dihydro-11-[[3-[2-(hexahydro-1H-1-azepinyl)ethyl]-1-piperidinyl]carbonyl]-6H-pyrido[2,3-b][1,4]-benzodiazepin-6-one-hydrochloride], for which the IC50 in data set [1] is 30.2 nM. The “Selectivity factor: ratio IC50 submandibular gland to IC50 heart” value in data set [2] amounted to 10.

Take `CCN(CC)CC1CCCCN1CC(=O)N1c2ccccc2C(=O)Nc2cccnc21` (stereo not shown) [Substance X, 11-[[2-[(diethylamino)methyl]-1-piperidinyl]acetyl]-5,11-dihydro-6H-pyrido[2,3-b][1,4]benzodiazepin-6-one]: in data set [3] (iv, 0.5 h, read-out: ID50, Lachrymal glands), the ED50 was greater than 30000 µg/kg.

With `O=C1Nc2cccnc2N(C(=O)N2CCCC(CCCN3CCCCC3)C2)c2ccccc21` (stereo not shown) [Substance A, 5,11-dihydro-11-[[3-[3-(1-piperidinyl)propyl]-1-piperidinyl]carbonyl]-6H-pyrido[2,3-b][1,4]-benzodiazepin-6-one], the ED50 in data set [4] was found to be 5 µg/kg; at M1 it was 49 µg/kg; at M2 it was 6.9 µg/kg. Further, the Kb in data set [5] came to 3.23 nM; in data set [6], 0.347 nM. For the same compound, the “effectiveness compared with X and Y, Table III (in words)” value in [7] is “significantly more effective than X and Y”. For the same compound, the “selectivity heart vs smooth muscle, Table III (in words)” value in [7] is on record as “a clear selectivity in favour of the heart”. Besides, the IC50 in data set [1] is 20 nM. Moreover, the “Selectivity factor: ratio IC50 submandibular gland to IC50 heart” value in [2] is listed as 10. Moreover, the “Ratio of ID50 in the lachrymal glands to ID50 in the atrium” value in data set [3] (in vivo binding) was found to be 20. Also, the “potency on the heart compared with X and Y, Table IV (in words)” value in data set [8] was “significant improvement in potency compared with substances X and Y on the heart”. The “ID50, Bronchi” value in data set [9] worked out at 60 µg/kg.

For the compound `CCN(CC)CCCCC1CCCCN1C(=O)N1c2ccccc2C(=O)Nc2cccnc21` (stereo not shown) [Example 4 dihydrochloride], the “solubility in water (in words)” value in “Solubility in water” is recorded as “water soluble”.

Turning to `Cl.O=C1Nc2cccnc2N(C(=O)N2CCCC(CCCN3CCCC3)C2)c2ccccc21` (stereo not shown) [Substance B, 5,11-dihydro-11-[[3-[3-(1-pyrrolidinyl)propyl]-1-piperidinyl]carbonyl]-6H-pyrido[2,3-b][1,4]benzodiazepin-6-one-hydrochloride], the IC50 in [1] is 39.8 nM. In addition, the “Selectivity factor: ratio IC50 submandibular gland to IC50 heart” value in data set [2] is given as 4.

In the case of `O=C1Nc2cccnc2N(C(=O)N2CCCC(CCN3CCCC3)C2)c2ccccc21` (stereo not shown) [Substance D, 5,11-dihydro-11-[[3-[2-(1-pyrrolidinyl)ethyl]-1-piperidinyl]carbonyl]-6H-pvrido[2,3-b][1,4]benzodiazepin-6-one-hydrochloride], the IC50 in data set [1] was 50.1 nM. Also, in [2], the “Selectivity factor: ratio IC50 submandibular gland to IC50 heart” value is given as 8.3.

For `CS(=O)(=O)O.O=C1Nc2cccnc2N(C(=O)N2CCCC(CCCN3CCCCC3)C2)c2ccccc21` (stereo not shown) [Example 1 methanesulphonate, 5,11-dihydro-11-[[3-[3-(1-piperidinyl)propyl]-1-piperidinyl]carbonyl]-6H-pyrido[2,3-b][1,4]benzodiazepin-6-one-methanesulphonate], in “Solubility in water”, the “solubility in water (in words)” value is on record as “readily soluble in water”.

On to `O=C1Nc2ccccc2N(C(=O)N2CCCC(CCN3CCCCC3)C2)c2ncccc21` (stereo not shown) [Substance G, 6,11-dihydro-11-[[3-[2-(1-piperidinyl)ethyl]-1-piperidinyl]carbonyl]-5H-pyrido[2,3-b][1,5]benzodiazepin-5-one], for which the IC50 in data set [1] was 39.8 nM. In addition, in data set [2], the “Selectivity factor: ratio IC50 submandibular gland to IC50 heart” value was 10. For the same compound, the ED50 was 7.16 µg/kg on M1 and 8.13 µg/kg at M2.
